These results are taken from patent US20160050959A1, “TABLET COMPRISING FRUCTOSE” (NATURALIA INGREDIENTS S.R.L., priority 2013, published 2016).

Structures are written as SMILES.

A short description of data set [1]: Colour change of tablets after direct compression. The data set is classed as physicochemical. Particulars: 98% fructose + 2% leucine. As for the experimental part:
The tablets were prepared by direct compression, after 15 min. mixing of the ingredients, using a Korsch XL 400 compression machine with force of 12 kN and rotation speed of 20,000 tablets/h.

Data set [2] in a line: Compressibility (compression force versus tablet hardness). The data set is classed as physicochemical. The note with it: 98% fructose + 2% leucine, direct compression 12 kN. As for the experimental part: Compressibility: the compressibility was evaluated by measuring the compression force of the compression machine used and the hardness of the tablet. With the same hardness, the formulation that requires less compression force is more compressible.

For data set [3] the following is noted: studies on mice followed by clinical trials on humans; cited from earlier work.
The conditions of data set [4]: at 20° C.; cited from earlier work.
Data set [5] in a line: Cracking off, operator observation. The format is physicochemical. Particulars: 98% fructose + 2% leucine; operator evaluation. As for the experimental part:
Cracking off: the cracking off was evaluated directly by the machine operator by observing the tablets both during mould ejection and during the friability test. The tablets must never crack into two mirror-image parts with crack horizontal to the edge, or have visible cracks on the same edge.

Data set [6] can be described thus: Tablet stability tests / stability to humidity. The format is physicochemical. The note with it: tablets of 98% fructose + 2% leucine, grape versus commercial fructose.
A short description of data set [7]: Friability, evaluation by the operator. The data set is classed as physicochemical. Particulars: 98% fructose + 2% leucine. As for the experimental part:
Friability: friability is measured with the friabilimeter and relative method described in Pharmacopoeia Europea (note: in our specific case, an evaluation by the operator was performed, not a measurement).

Setting [8] is: listed as crystalline grape fructose.

For `O=C(CO)[C@@H](O)[C@H](O)[C@H](O)CO` [commercial fructose, fructose], the “colour change of tablet” value in data set [1] was “tendency to form yellow patches”. Further, the Compressibility entry in data set [2] is on record as “very poor”.
For the compound `O=C(CO)[C@@H](O)[C@H](O)[C@H](O)CO` [fructose extracted from fruit, fructose], the insulin secretion result in data set [3] was “very low”.
On to `O=C(CO)[C@@H](O)[C@H](O)[C@H](O)CO` [fructose], for which the solubility in water result in data set [4] was “approx. 80%”.
In the case of `O=C(CO)[C@@H](O)[C@H](O)[C@H](O)CO` [grape fructose, fructose], the “colour change of tablet” value in data set [1] was “did not change colour”; in data set [1] (setting [8]), “does not change colour”. Also, in data set [5], the Cracking off result is “does not tend to cracking off”. The figures for the stability entry in data set [6] and in data set [6] (setting [8]) were “more stable” and “more resistant to the stability tests”, respectively. In addition, the Compressibility entry in data set [2] is “compressed better”; in data set [2] (setting [8]), “compresses well”. Besides, in data set [7], the Friability entry is “is not friable”.
